system: HCV replicon; assay: HCV Replicon Assay (luciferase, 5-2 Luc replicon cells); type: cell-based; details: 5-2 Luc replicon cells (Huh7), 24-48 hours with compound, luciferase counts
Description: Actively dividing 5-2 Luc replicon cells were seeded at the density of 5000-7500 cells/well in the volume of 90 μl/well into 96 well plate(s). The cells were then incubated at 37° C. and 5% CO2 for 24 hours. The 5-2 cells are replicon cells licensed from Ralf Bartenschlager (Germany) and have a self-replicating RNA molecule in the Huh7 cell; the RNA contains HCV non-structural proteins that make the self-replication possible.
Various concentrations of compounds (in the volume of 10 μl) were added into each well 24 hours after seeding the cells. The cells were incubated for another 24-48 hours before luciferase assay.
After incubating the 5-2 Luc replicon cells with the compounds for 24-48 hours, media were aspirated from each well and Bright-Glo (Promega) luciferase assay reagents were added to each well according to the manufacturer′s manual. Briefly, the Bright-Glo reagent was diluted with equal volume of PBS and an aliquote (100 μl) was added to each well. After incubating the plate at room temperature for 5 minutes, luciferase counts were taken using a luminometer.

Compound | Activity (concentration of inhibitory activity)
CC(C)(C)c1cc2cc(NC(=O)Cc3cccc4ccccc34)ccc2[nH]1 [Compound 5a, 2-t-Butyl-5-(naphth-1-yl-ethanoyl)aminoindole] | b (“b” indicates activity is at a concentration greater than 10 micromolar)
CC(C)(C)c1cc2cc(NC(=O)Cc3cccc([N+](=O)[O-])c3)ccc2[nH]1 [Compound 5b, 2-t-Butyl-5-(3-nitrophenylethanoyl)aminoindole] | b (“b” indicates activity is at a concentration greater than 10 micromolar)
CC(C)(C)c1cc2cc(NC(=O)C3CCCC3)ccc2[nH]1 [Compound 5c, 2-t-Butyl-5-(cyclopentanecarbonyl)aminoindole] | a (“a” indicates inhibitory activity at a concentration of less than 10 micromolar)
CC(C)(C)c1cc2cc(NC(=O)C3(c4ccc(Cl)cc4)CCCC3)ccc2[nH]1 [Compound 5d, 2-t-Butyl-5-(1-(4chlorophenyl)-1-cyclopentanecarbonyl)aminoindole] | b (“b” indicates activity is at a concentration greater than 10 micromolar)
CC(C)(C)c1cc2cc(NC(=O)c3c(F)cccc3F)ccc2[nH]1 [Compound 5e, 2-t-Butyl-5-(2′,6′-difluorophenylcarbonyl)aminoindole] | a (“a” indicates inhibitory activity at a concentration of less than 10 micromolar)
CC(C)(C)c1cc2cc(NC(=O)c3ccc(Cl)cc3Cl)ccc2[nH]1 [Compound 5f, 2-t-Butyl-5-(2′,4′-dichlorophenylcarbonyl)aminoindole] | a (“a” indicates inhibitory activity at a concentration of less than 10 micromolar)
Cc1ccsc1C(=O)Nc1ccc2[nH]c(C(C)(C)C)cc2c1 [Compound 5g, 2-t-Butyl-5-(3-methylthiophene-2-carbonyl)aminoindole] | a (“a” indicates inhibitory activity at a concentration of less than 10 micromolar)
CC(C)(C)c1cc2cc(NC(=O)C(Cl)Cl)ccc2[nH]1 [Compound 5h, 2-t-Butyl-5-dichloroacetamidoindole] | a (“a” indicates inhibitory activity at a concentration of less than 10 micromolar)
Cc1cn(C(=O)c2c(Cl)cccc2Cl)c2ccc(NC(=O)C3CCCC3)cc12 [Compound 9a, 5-(Cyclopentanecarbonyl)amino-1-(2′,6′-dichlorobenzoyl)-3-methylindole] | a (“a” indicates inhibitory activity at a concentration of less than 10 micromolar)
CCCC(=O)Nc1ccc2c(c1)c(C)cn2C(=O)c1c(Cl)cccc1Cl [Compound 9b, 1-(2′,6′-Dichlorobenzoyl)-3-methyl-5-(n-propanecarbonyl)aminoindole] | a (“a” indicates inhibitory activity at a concentration of less than 10 micromolar)
Cc1cn(C(=O)c2c(Cl)cccc2Cl)c2ccc(NC(=O)C3CCC3)cc12 [Compound 9c, 5-(Cyclobutanecarbonyl)amino-1-(2′,6′-dichlorobenzoyl)-3-methylindole] | a (“a” indicates inhibitory activity at a concentration of less than 10 micromolar)
Cc1cn(C(=O)c2c(Cl)cccc2Cl)c2ccc(NC(=O)C3CC3)cc12 [Compound 9d, 5-(Cyclopropanecarbonyl)amino-1-(2′,6′-dichlorobenzoyl)-3-methylindole] | a (“a” indicates inhibitory activity at a concentration of less than 10 micromolar)
CCCCC(=O)Nc1ccc2c(c1)c(C)cn2C(=O)c1c(Cl)cccc1Cl [Compound 9e, 5-(n-Butanecarbonyl)amino-1-(2′,6′-dichlorobenzoyl)-3-methylindole] | a (“a” indicates inhibitory activity at a concentration of less than 10 micromolar)
C/C=C/C(=O)C(=O)Nc1ccc2c(c1)c(C)cn2C(=O)c1c(Cl)cccc1Cl [Compound 9f, 5-(trans-Crotonylcarbonyl)amino-1-(2′,6′-dichlorobenzoyl)-3-methylindole] | a (“a” indicates inhibitory activity at a concentration of less than 10 micromolar)
Cc1c(C)n(C(=O)c2c(Cl)cccc2Cl)c2ccc(NC(=O)C3CCCCC3)cc12 [Compound 13a, 5-(Cyclohexanecarbonyl)amino-1-(2′,6′-dichlorobenzoyl)-2,3-dimethylindole] | a (“a” indicates inhibitory activity at a concentration of less than 10 micromolar)
Cc1c(C)n(C(=O)c2c(Cl)cccc2Cl)c2ccc(NC(=O)C3CCCC3)cc12 [Compound 13b, 5-(Cyclopentanecarbonyl)amino-1-(2′,6′-dichlorobenzoyl)-2,3-dimethylindole] | a (“a” indicates inhibitory activity at a concentration of less than 10 micromolar)

Compound | Activity (concentration of inhibitory activity)
Cc1c(C)n(C(=O)c2c(Cl)cccc2Cl)c2ccc(NC(=O)C3CCC3)cc12 [Compound 13c, 5-(Cyclobutanecarbonyl)amino-1-(2′,6′-dichlorobenzoyl)-2,3-dimethylindole] | a (“a” indicates inhibitory activity at a concentration of less than 10 micromolar)
Cc1c(C)n(C(=O)c2c(Cl)cccc2Cl)c2ccc(NC(=O)C3CC3)cc12 [Compound 13d, 5-(Cyclopropanecarbonyl)amino-1-(2′,6′-dichlorobenzoyl)-2,3-dimethylindole] | a (“a” indicates inhibitory activity at a concentration of less than 10 micromolar)
CCCCC(=O)Nc1ccc2c(c1)c(C)c(C)n2C(=O)c1c(Cl)cccc1Cl [Compound 13e, 5-(n-Butanecarbonyl)amino-1-(2′,6′-dichlorobenzoyl)-2,3-dimethylindole] | a (“a” indicates inhibitory activity at a concentration of less than 10 micromolar)
Cc1cc2cc(NC(=O)C3CCCCC3)ccc2n1C(=O)c1c(Cl)cccc1Cl [Compound 16a-2, 5-Cyclohexanecarbonylamino-1-(2′,6′-dichlorobenzoyl)-2-methylindole] | a (“a” indicates inhibitory activity at a concentration of less than 10 micromolar)
Cc1cc2cc(NC(=O)C3CCC3)ccc2n1C(=O)c1c(Cl)cccc1Cl [Compound 16a-3, 5-Cyclobutanecarbonylamino-1-(2′,6′-dichlorobenzoyl)-2-methylindole] | a (“a” indicates inhibitory activity at a concentration of less than 10 micromolar)
Cc1cc2cc(NC(=O)C3CC3)ccc2n1C(=O)c1c(Cl)cccc1Cl [Compound 16a-4, 5-Cyclopropanecarbonylamino-1-(2′,6′-dichlorobenzoyl)-2-methylindole] | a (“a” indicates inhibitory activity at a concentration of less than 10 micromolar)
Cc1cc2cc(NC(=O)C(C)C)ccc2n1C(=O)c1c(Cl)cccc1Cl [Compound 16a-5, 1-(2′,6′-Dichlorobenzoyl)-5-(2-methylpropanoyl)amino-2-methylindole] | a (“a” indicates inhibitory activity at a concentration of less than 10 micromolar)
CCC(C)C(=O)Nc1ccc2c(c1)cc(C)n2C(=O)c1c(Cl)cccc1Cl (stereo not shown) [Compound 16a-6, 1-(2′,6′-Dichlorobenzoyl)-5-(2-methylbutanoyl)amino-2-methylindole] | a (“a” indicates inhibitory activity at a concentration of less than 10 micromolar)
CCCCC(=O)Nc1ccc2c(c1)cc(C)n2C(=O)c1c(Cl)cccc1Cl [Compound 16a-7, 1-(2′,6′-Dichlorobenzoyl)-5-(n-pentanoyl)amino-2-methylindole] | a (“a” indicates inhibitory activity at a concentration of less than 10 micromolar)
C/C=C/C(=O)Nc1ccc2c(c1)cc(C)n2C(=O)c1c(Cl)cccc1Cl [Compound 16a-8, 5-(trans-Crotonyl)amino-1-(2′,6′-dichlorobenzoyl)-2-methylindole] | a (“a” indicates inhibitory activity at a concentration of less than 10 micromolar)
CCC(CC)C(=O)Nc1ccc2c(c1)cc(C)n2C(=O)c1c(Cl)cccc1Cl [Compound 16a-9, 1-(2′,6′-Dichlorobenzoyl)-5-(2-ethylbutanoyl)amino-2-methylindole] | a (“a” indicates inhibitory activity at a concentration of less than 10 micromolar)
Cc1cc2cc(NC(=O)c3cccnc3)ccc2n1C(=O)c1c(Cl)cccc1Cl [Compound 16a-10, 1-(2′,6′-Dichlorobenzoyl)-5-(3-pyridylcarbonyl)amino-2-methylindole] | a (“a” indicates inhibitory activity at a concentration of less than 10 micromolar)
Cc1ccsc1C(=O)Nc1ccc2c(c1)cc(C)n2C(=O)c1c(Cl)cccc1Cl [Compound 16a-11, 1-(2′,6′-Dichlorobenzoyl)-5-(3-methyl-2-thiophenylcarbonyl)amino-2-methylindole] | a (“a” indicates inhibitory activity at a concentration of less than 10 micromolar)
COc1cscc1C(=O)Nc1ccc2c(c1)cc(C)n2C(=O)c1c(Cl)cccc1Cl [Compound 16a-12, 1-(2′,6′-Dichlorobenzoyl)-5-(4-methoxy-3-thiophenylcarbonyl)amino-2-methylindole] | a (“a” indicates inhibitory activity at a concentration of less than 10 micromolar)
Cc1cc2cc(NC(=O)Cc3cccnc3)ccc2n1C(=O)c1c(Cl)cccc1Cl [Compound 16a-13, 1-(2′,6′-Dichlorobenzoyl)-5-(3-pyridyl-2-acetamido)-2-methylindole] | a (“a” indicates inhibitory activity at a concentration of less than 10 micromolar)

Reference: patent US20050215614A1, “Substituted indoles and their use as hcv inhibitors” (Rigel Pharmaceuticals, Inc., priority 2003, published 2005)
